Measured values as given in US20070043122A1, “Use of 2,2,3,3, tetramethylcyclopropane carboxylic acid derivatives for treating psychiatric disorders” (YISSUM RESEARCH DEVELOPMENT CO. OF THE HEBREW UNIVERSITY OF …, priority 2003, published 2007).
Read-outs that look alike come from different tables or passages of the source.

Columns and labels:
[1] = test system: neural tube defects (NTDs); settings: in vivo; cited from earlier work
human brain MIP synthase = biological target: T1, human brain MIP synthase (Homo sapiens, UniProt Q9NPH2); test: Human brain MIP synthase activity in postmortem prefrontal cortex homogenate; assay type: biochemical; settings: for Ki: human brain homogenate; for inhibited MIP synthase activity (which of the other psychotropic drugs): at concentrations 1.5 times greater than their upper therapeutic range (concentrations in Table 2)
T1 construct: supernatant fraction obtained after sonication; from tissue; host or cells: postmortem human prefrontal cortex, 9,000 x g supernatant of sonicated homogenate
T1 sequence (Q9NPH2 1-558): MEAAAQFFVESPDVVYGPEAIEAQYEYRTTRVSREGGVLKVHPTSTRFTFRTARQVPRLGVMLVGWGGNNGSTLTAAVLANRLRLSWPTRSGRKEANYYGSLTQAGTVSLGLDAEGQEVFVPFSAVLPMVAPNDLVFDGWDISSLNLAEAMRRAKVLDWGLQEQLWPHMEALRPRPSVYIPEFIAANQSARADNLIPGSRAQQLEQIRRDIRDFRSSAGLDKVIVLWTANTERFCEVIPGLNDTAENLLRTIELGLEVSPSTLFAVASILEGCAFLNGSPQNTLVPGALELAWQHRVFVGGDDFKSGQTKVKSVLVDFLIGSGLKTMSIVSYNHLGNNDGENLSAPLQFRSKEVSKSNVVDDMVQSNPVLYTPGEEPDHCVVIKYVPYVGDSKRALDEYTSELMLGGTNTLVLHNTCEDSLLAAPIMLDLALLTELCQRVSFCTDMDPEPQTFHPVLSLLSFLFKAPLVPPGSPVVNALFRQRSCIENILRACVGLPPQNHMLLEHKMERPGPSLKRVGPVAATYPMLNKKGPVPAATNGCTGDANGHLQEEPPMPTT
Procedure: Human brain MIP synthase activity. Five μl of the supernatant fraction obtained after sonication (Ultrasonic Processor, Newtown, Conn., 15 sec at 0.1 output watts at 4° C.) and centrifugation for 20 min at 9,000×g at 4° C. of postmortem human prefrontal cortex (1 mg wet weight in 0.5 ml of 50 mM Tris HCl, pH 7.4) were added to 20 μl reaction mixture containing 4 mM D-glucose-6-phosphate, 1.25 μCi D-glucose-6-phosphate [^14C], 1.6 mM NAD^+, 0.45 mM KCl, 5.4 mM MgCl2 and 0.9 mM Tris HCl, pH 7.6, with or without 5 mU IMPase (Sigma, St. Louis). Incubation with or without various drugs concentrations (table 2 and table 3) was carried out for 3 hours (within the linear range) at 37° C. The reaction was stopped by adding 50 μl cold double distilled water (ddH20). Seventy out of the 80 μl were added to test tubes containing 1.25 g strong basic anion resin (Amberjet 4200, Rohm and Haas, Philadelphia) in 1 ml ddH2O. The mixtures were vortexed for 10 min, then centrifugated for 10 min at 10,000×g at room temperature, and 200 μl supernatant taken for ^14C counting (Liquid Scintillation Counter, Kontron, Basel). The enzymatic activity was calculated by subtracting values without IMPase from the measures with IMPase. The measurements were carried out in triplicate.
Table 2 details the drugs and their concentrations compared with their therapeutic concentrations, studied for possible inhibition of human brain MIP synthase activity. Each drug was tested twice, each experiment in triplicate.

[2] = test system: whole brain inositol levels; test: Whole brain inositol levels in mice after chronic VPA administration; assay type: in vivo; settings: for mice whole brain inositol levels: means ± S.E.M.
Procedure: (§1) Animals. The study was approved by the Ben-Gurion University (Beer Sheva, Israel) Institutional Review Committee for the Use of Animals, and the procedures were carried out in compliance with the declaration of the National Institute of Health Guide for care and use of laboratory animals [Council N R, editor. Guide for the care and use of laboratory animals. Washington, D.C.: National Academy Press; 1996]. […] J Neurochem 1999; 72(2):879-82] which approximate therapeutically-relevant plasma levels. […] Prog Neurobiol 1999; 58(1):31-59]. One saline-injected group was sacrificed right after the injection. All other four groups were sacrificed one hour after the injection. Frontal cortex was removed from all mice right after sacrifice and frozen (−70° C.) till further processing. […] Mice of group II (n=13, controls) were injected saline (IP) twice a day. Animals were then sacrificed, brain removed and dealt as above.
Gas chromatographic measurement of brain inositol levels. Mouse brain free inositol levels were analyzed as trimethylsilyl (TMS) derivatives by gas-liquid chromatography (GC), as described in Shapiro J et al [Shapiro J, Belmaker R H, Beigon A, Seker A, Agam G. Scyllo-Inositol in Post-Mortem Brain of Suicide Victims, Bipolar, Unipolar and Schizophrenic Patients. J Neural Transm 2000; 107: 603-607] using a capillary column. […] Replicate reliability was tested in rat brain. […] Each sample extract was assayed at least in duplicate. The results presented are the average of the replicates. Assays were performed in a blind and balanced design such that each run included samples from all comparison groups.

[3] = test system: frontal cortex inositol levels; test: Frontal cortex inositol levels in mice after a single dose of VPA (gas chromatography); assay type: in vivo; settings: acute, single IP dose 300, 600, 800 mg/kg, sacrificed one hour after injection; all concentrations tested
Procedure: as §1
Gas chromatographic measurement of brain inositol levels. Mouse brain free inositol levels were analyzed as trimethylsilyl (TMS) derivatives by gas-liquid chromatography (GC), as described in Shapiro J et al [Shapiro J, Belmaker R H, Beigon A, Seker A, Agam G. Scyllo-Inositol in Post-Mortem Brain of Suicide Victims, Bipolar, Unipolar and Schizophrenic Patients. J Neural Transm 2000; 107: 603-607] using a capillary column. […] Replicate reliability was tested in rat brain. […]

[4] = 400 mg/kg/day IP twice daily for 9 or 28 days; cited from earlier work
IMPase = biological target: T2, IMPase (Homo sapiens, UniProt P29218); settings: cited from earlier work
T2 sequence (P29218 1-277): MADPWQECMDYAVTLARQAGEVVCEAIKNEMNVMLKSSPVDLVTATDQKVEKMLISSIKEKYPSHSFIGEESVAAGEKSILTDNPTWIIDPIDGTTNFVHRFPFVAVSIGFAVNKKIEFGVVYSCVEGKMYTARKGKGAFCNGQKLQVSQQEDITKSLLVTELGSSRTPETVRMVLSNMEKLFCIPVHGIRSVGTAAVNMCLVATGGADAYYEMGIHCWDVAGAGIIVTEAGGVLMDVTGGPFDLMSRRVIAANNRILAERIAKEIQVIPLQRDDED

[5] = test system: growth cones of newborn rat dorsal root ganglia (DRG) cells; settings: reversed by addition of myo-inositol; cited from earlier work
growth cones of rat DRGs = test: Growth cone spreading in rat neuron DRG explants; assay type: cell-based; settings: 1 mM, 24 hour exposure
Procedure: Rat neuron DRG (dorsal root ganglia) explants. […] After 24 hours for attachment, cytosine β-arabinofuranoside (ara-C, 10 μM) was added for 24 hours to kill non-neuronal cells. […] The explants were then fixed in 4% paraformaldehyde in PBS (Phosphate buffered saline) for 20 minutes at room temperature. Growth cones were analysed on an inverted microscope (Zeiss Axiovert) and measured using an NIH Image software.

SMILES: CNC(=O)C1C(C)(C)C1(C)C [M-TMCD, N-methyl-2,2,3,3-tetramethylcyclopropanecarboxamide]
- teratogenicity [1]: lack of teratogenicity
- inhibition at 1300 µM (human brain MIP synthase; read-out: Inhibition of human brain MIP synthase activity): 93%

SMILES: CCCC(CCC)C(=O)O [VPA, valproic acid]
- mice whole brain inositol levels ([2]; IP injection of VPA twice a day, 400-800 mg/kg/day, fourteen days): 27.9 ± 3.2
- mice whole brain inositol levels ([2]; VPA in drinking water (12.5 g/liter) for 11 days): 30.1 ± 1.7
- effect of chronic VPA on brain inositol levels ([2]; eleven days in drinking water or 14 days IP injection): did not deplete brain inositol levels
- reduction in frontal cortex inositol concentration [3]: 20%
- blood VPA levels [4]: 0.27 ± 0.02 mM
- effect on IMPase activity (IMPase): no effect
- effect on spreading of growth cones of newborn rat DRG cells [5]: increased spreading
- inhibition at 1000 µM (human brain MIP synthase; 1.0 mM): 100%
- Ki (human brain MIP synthase; read-out: Ki for MIP synthase (Dixon's plot)): 210 µM
- Ki (human brain MIP synthase; read-out: Ki for MIP synthase (Lineweaver-Burk plot)): 240 µM

SMILES: CCCC(CCC)C(N)=O [VPD, valpromide]
- effect on growth cone spreading of DRGs (growth cones of rat DRGs): no increased growth cone spreading
- inhibition at 1400 µM (human brain MIP synthase; 1.4 mM): 34%

SMILES: NC(=O)N1c2ccccc2C=Cc2ccccc21 [carbamazepine]
- effect on spreading of growth cones of newborn rat DRG cells [5]: increased spreading
- inhibited MIP synthase activity (which of the other psychotropic drugs) (human brain MIP synthase): None

SMILES: CN(C)CCCN1c2ccccc2Sc2ccc(Cl)cc21 [chlorpromazine]
- inhibited MIP synthase activity (which of the other psychotropic drugs) (human brain MIP synthase): None

SMILES: CN(C)CCCN1c2ccccc2CCc2ccc(Cl)cc21 [clomipramine]
- inhibited MIP synthase activity (which of the other psychotropic drugs) (human brain MIP synthase): None

SMILES: O=C(CCCN1CCC(O)(c2ccc(Cl)cc2)CC1)c1ccc(F)cc1 [haloperidol]
- inhibited MIP synthase activity (which of the other psychotropic drugs) (human brain MIP synthase): None

SMILES: CN(C)CCCN1c2ccccc2CCc2ccccc21 [imipramine]
- inhibited MIP synthase activity (which of the other psychotropic drugs) (human brain MIP synthase): None

SMILES: O=C1NC(=O)C(c2ccccc2)(c2ccccc2)N1 [phenytoin]
- inhibited MIP synthase activity (which of the other psychotropic drugs) (human brain MIP synthase): None
